Holding throughout (assay type): cell-based
For one assay, the target named is T1, JAK1 (Homo sapiens, UniProt P23458).
T1 construct: endogenous in cells; host or cells: MHH-CALL-4
The assay can be described thus: Western blot assay, JAK1 protein degradation. The conditions noted are these: MHH-CALL-4 cells, vehicle control = 100%. The method, then:
(§1) Western blot assay: MHH-CALL-4 Cells were washed twice with ice-cold PBS and lysed in RIPA lysis buffer (Sigma) freshly supplemented with Halt™ Protease Inhibitor Cocktail (ThermoFisher) for 15 minutes on ice. The cell pellet was removed by centrifugation at 13,000 g at 4° C. for 15 minutes. Protein concentration was measured by BCA assay (Thermo Fisher Scientific). Proteins were denatured in NuPAGE LDS 4× sample buffer supplemented with reducing agents (Invitrogen). Typically, 10-20 μg of total protein was loaded per lane on a 4%-12% NUPAGE Bis-Tris gradient gel (Invitrogen) and analyzed by standard immunoblotting and imaged using Li—COR Odyssey CLx (LI-COR Biotechnology, Lincoln, NE). To access the protein degradation, the signal of target protein was normalized by the signal of ACBT and the signal of vehicle control was set as 100%. Primary antibodies used were: JAK1 (Cell Signaling #3332S), JAK2 (#3230S), JAK3 (#8827S), TYK2 (#9312S), GSPT1 (#14980S), CRBN (#71810S), IKZF1 (Santa Cruz Biotechnology, SC-398265) and ACBT (Santa Cruz Biotechnology, SC-47778).
(A western blot detects proteins with antibodies after separation by electrophoresis.)

The next assay has as its system JAK2. The assay can be described thus: Western blot assay, JAK2 protein degradation. The settings on record: MHH-CALL-4 cells, vehicle control = 100%. As to the method:
as §1

The next assay has as its target T2, JAK3 (Homo sapiens, UniProt P52333).
T2 construct: endogenous in cells; host or cells: MHH-CALL-4
T2 sequence (P52333 1-1124): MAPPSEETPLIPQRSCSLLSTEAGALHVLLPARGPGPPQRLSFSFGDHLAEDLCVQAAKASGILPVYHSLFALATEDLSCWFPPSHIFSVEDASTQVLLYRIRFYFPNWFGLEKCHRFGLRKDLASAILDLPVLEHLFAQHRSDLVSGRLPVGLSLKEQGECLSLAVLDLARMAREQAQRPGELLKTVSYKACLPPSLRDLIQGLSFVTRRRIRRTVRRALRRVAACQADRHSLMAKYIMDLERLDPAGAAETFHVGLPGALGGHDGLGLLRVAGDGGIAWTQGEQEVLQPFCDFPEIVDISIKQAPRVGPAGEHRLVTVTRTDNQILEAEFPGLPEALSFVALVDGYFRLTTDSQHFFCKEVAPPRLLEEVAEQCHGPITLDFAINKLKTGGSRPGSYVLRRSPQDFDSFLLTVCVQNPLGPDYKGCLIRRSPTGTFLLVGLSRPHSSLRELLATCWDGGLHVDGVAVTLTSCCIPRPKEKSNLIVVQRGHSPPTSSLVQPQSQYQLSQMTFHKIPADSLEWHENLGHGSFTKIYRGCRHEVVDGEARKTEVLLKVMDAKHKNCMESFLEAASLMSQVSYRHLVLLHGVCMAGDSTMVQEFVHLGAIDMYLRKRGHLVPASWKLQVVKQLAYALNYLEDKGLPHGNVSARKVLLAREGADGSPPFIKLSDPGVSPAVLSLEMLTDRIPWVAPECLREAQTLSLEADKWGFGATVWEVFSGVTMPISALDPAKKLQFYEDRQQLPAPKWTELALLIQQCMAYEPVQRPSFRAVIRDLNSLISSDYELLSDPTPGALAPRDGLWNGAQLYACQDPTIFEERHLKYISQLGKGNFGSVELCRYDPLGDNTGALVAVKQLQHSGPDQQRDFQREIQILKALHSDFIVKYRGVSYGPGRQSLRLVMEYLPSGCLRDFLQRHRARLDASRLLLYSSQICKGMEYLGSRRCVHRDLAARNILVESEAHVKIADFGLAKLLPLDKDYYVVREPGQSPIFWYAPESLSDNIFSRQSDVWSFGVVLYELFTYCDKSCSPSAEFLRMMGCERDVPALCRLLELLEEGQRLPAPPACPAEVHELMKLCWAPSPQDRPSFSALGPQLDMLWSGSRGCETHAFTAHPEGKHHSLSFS
The assay can be described thus: Western blot assay, JAK3 protein degradation. The settings on record: MHHCALL4; 100 nM, 24 h; MHH-CALL-4 cells; vehicle control = 100%; read-out: Target Protein Degradation (% remaining at 100 nM, 24 h) JAK3. The method, then: as §1

In another assay the target is T3, GSPT1 (Homo sapiens, UniProt P15170).
T3 construct: endogenous in cells; host or cells: MHH-CALL-4
The assay can be described thus: Western blot assay, GSPT1 neosubstrate degradation. The settings on record: MHHCALL4; 100 nM, 24 h; MHH-CALL-4 cells; vehicle control = 100%. The method, then: as §1

The next assay has as its system MHH-CALL-4 cells. The assay can be described thus: Cytotoxicity assay (resazurin, 72 hours). The settings on record: for EC50: MHHCALL4, resazurin; for AUC: area under the dose-response curve. On the set-up: AUC: unit not given beside the values. The method, then: Cytotoxicity assay: MHH-CALL-4 cells were maintained in RPMI1640 medium (Invitrogen) supplemented with 10% FBS (Hyclone), Penicillin/Streptomycin (100 units/mL) and Glutamine (100 μM). 2×10^5 cells were seeded in 100 μl medium/well in 96 well assay plates (Corning 3603). Assays were performed in triplicate; compounds to be screened were added to assay plates from DMSO stock solutions by pin transfer using 50SS pins (V&P Scientific). The assay plates incubated at 37° C. in 5% CO2 for 72 hours. Cells were then incubated for four hours with resazurin (Sigma) solution and read on a Synergy HT plate reader (Biotek, Winooski, VT). High-throughput assay data was analyzed using our in-house Robust Interpretation of Screening Experiments (RISE) application written in Pipeline Pilot (Biovia, v. 17.2.0) and the R program (R Core Team, 2013). All the AUC (area under the dose-response curve) per compound calculated from its dose response curve by RISE protocol. Selected data were plotted and analyzed by GraphPad Prism software v7 using non-linear regression curve fitting.
Background: Alamar Blue is a resazurin reagent that responds to reducing activity.

These results are taken from patent publication US20240124465A1, “MOLECULES AND METHODS RELATED TO TREATMENT OF DISORDERS ASSOCIATED WITH JAK-2 SIGNALING DYSFUNCTION” (ST. JUDE CHILDREN'S RESEARCH HOSPITAL, priority 2020, published 2024).

The structures appear in SMILES notation.

T1 sequence (P23458 whole entry): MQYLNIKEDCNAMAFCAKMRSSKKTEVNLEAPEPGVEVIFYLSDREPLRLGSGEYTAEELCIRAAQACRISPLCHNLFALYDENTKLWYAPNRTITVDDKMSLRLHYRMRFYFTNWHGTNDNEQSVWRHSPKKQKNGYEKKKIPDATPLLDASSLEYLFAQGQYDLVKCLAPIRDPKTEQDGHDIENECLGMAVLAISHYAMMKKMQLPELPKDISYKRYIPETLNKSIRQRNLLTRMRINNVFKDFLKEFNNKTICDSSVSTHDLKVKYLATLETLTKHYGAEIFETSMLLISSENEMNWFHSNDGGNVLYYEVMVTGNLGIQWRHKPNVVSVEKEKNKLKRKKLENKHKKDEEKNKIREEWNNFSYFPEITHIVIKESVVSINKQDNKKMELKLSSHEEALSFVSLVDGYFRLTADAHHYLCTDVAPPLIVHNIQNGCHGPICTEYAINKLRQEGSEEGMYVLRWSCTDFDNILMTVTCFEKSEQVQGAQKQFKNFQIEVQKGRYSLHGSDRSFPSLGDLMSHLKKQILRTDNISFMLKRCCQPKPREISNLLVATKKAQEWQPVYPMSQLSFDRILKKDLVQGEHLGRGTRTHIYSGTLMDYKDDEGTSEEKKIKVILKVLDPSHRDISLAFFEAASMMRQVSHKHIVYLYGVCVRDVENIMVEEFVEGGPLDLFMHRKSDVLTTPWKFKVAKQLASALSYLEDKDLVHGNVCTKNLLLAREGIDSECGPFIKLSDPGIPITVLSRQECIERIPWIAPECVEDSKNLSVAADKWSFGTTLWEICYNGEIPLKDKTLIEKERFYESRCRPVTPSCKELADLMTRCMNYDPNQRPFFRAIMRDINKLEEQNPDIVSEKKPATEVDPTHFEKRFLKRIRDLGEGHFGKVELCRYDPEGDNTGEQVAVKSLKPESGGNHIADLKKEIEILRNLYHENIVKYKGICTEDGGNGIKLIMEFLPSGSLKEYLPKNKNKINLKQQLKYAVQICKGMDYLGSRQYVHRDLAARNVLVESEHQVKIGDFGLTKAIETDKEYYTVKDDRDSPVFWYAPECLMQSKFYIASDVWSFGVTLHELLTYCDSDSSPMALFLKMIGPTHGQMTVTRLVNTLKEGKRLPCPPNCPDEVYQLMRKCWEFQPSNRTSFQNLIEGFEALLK
T3 sequence (P15170 whole entry): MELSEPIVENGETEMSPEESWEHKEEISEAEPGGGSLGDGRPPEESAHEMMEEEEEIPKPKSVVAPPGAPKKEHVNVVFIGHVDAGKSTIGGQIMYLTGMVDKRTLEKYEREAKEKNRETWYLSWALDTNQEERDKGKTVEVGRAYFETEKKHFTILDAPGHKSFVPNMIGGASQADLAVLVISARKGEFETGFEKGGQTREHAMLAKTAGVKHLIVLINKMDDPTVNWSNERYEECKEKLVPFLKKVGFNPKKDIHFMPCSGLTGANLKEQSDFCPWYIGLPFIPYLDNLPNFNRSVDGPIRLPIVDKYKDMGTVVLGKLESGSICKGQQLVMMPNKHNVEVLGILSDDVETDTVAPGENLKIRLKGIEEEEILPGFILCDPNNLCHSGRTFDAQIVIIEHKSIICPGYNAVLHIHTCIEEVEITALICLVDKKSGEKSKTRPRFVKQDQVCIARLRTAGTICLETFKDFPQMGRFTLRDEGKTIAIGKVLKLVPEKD

In the case of `CCCn1cc(-c2nc(Nc3ccc(C(=O)NCCCN4CCN(c5ccc(C6CCC(=O)NC6=O)cc5)CC4)cc3)nc3[nH]ccc23)cn1` (stereo not drawn) [Compound 44, N-(3-(4-(4-(2,6-dioxopiperidin-3-yl)phenyl)piperazin-1-yl)propyl)-4-((4-(1-propyl-JH-pyrazol-4-yl)-7H-pyrrolo[2,3-d]pyrimidin-2-yl)amino)benzamide], on JAK1, the “Target Protein Degradation (% remaining at 100 nM, 24 h) JAK1” value worked out at 104 % remaining. The “Target Protein Degradation (% remaining at 100 nM, 24 h) JAK2” value in the assay on JAK2 amounted to 64 % remaining. Further, the remaining activity at 0.1 µM at JAK3 was determined as 74%; at GSPT1, 81%.

For the molecule `CCS(=O)(=O)N1CC(CC#N)(n2cc(-c3nc(Nc4ccc(C(=O)NCCCCN5CCN(c6ccc(C7CCC(=O)NC7=O)cc6)CC5)cc4)nc4[nH]ccc34)cn2)C1` (stereo not drawn) [Compound 19], the EC50 in the assay on MHH-CALL-4 cells was 1450 nM. In the assay on MHH-CALL-4 cells, the AUC was 225. In addition, the “Target Protein Degradation (% remaining at 100 nM, 24 h) JAK1” value at JAK1 was determined as 87 % remaining. In addition, in the assay with JAK2, the “Target Protein Degradation (% remaining at 100 nM, 24 h) JAK2” value came out at 34 % remaining. The remaining activity at 0.1 µM on JAK3 stood at 112%; on GSPT1, 129%.

As to `CCS(=O)(=O)C1CC(CC#N)(n2cc(-c3nc(Nc4ccc(C(=O)NC5CCN(c6ccc7c(c6)C(=O)N(C6CCC(=O)NC6=O)C7=O)CC5)cc4)nc4[nH]ccc34)cn2)C1` (stereo not drawn) [Compound 29], in the assay on MHH-CALL-4 cells, the EC50 was 4.3 nM and the AUC came to 262. The “Target Protein Degradation (% remaining at 100 nM, 24 h) JAK1” value at JAK1 is 64 % remaining. In the assay with JAK2, the “Target Protein Degradation (% remaining at 100 nM, 24 h) JAK2” value was 14 % remaining. For the same molecule, the remaining activity at 0.1 µM on JAK3 came to 62%. For the same molecule, on GSPT1, the remaining activity at 0.1 µM stood at 51%.

Regarding `CCS(=O)(=O)N1CC(CC#N)(n2cc(-c3nc(Nc4ccc(C(=O)NCCCCCNc5cccc(C6CCC(=O)NC6=O)c5)cc4)nc4[nH]ccc34)cn2)C1` (stereo not drawn) [Compound 6], in the assay with MHH-CALL-4 cells, the EC50 was determined as 5.9 nM and the AUC came out at 136. On JAK1, the “Target Protein Degradation (% remaining at 100 nM, 24 h) JAK1” value amounted to 44 % remaining. Also, the “Target Protein Degradation (% remaining at 100 nM, 24 h) JAK2” value in the assay with JAK2 worked out at 37 % remaining. The remaining activity at 0.1 µM on JAK3 turned out to be 54%.

Take `N#CC[C@H](C1CCCC1)n1cc(-c2nc(Nc3ccc(C(=O)NCCCCOc4ccc(C5CCC(=O)NC5=O)cc4)cc3)nc3[nH]ccc23)cn1` (stereo partly drawn) [Compound 36]: in the assay on MHH-CALL-4 cells, the EC50 was determined as 5.4 nM and the AUC turned out to be 129. Besides, at JAK1, the “Target Protein Degradation (% remaining at 100 nM, 24 h) JAK1” value was 118 % remaining. Also, in the assay on JAK2, the “Target Protein Degradation (% remaining at 100 nM, 24 h) JAK2” value was 32 % remaining. Moreover, the remaining activity at 0.1 µM at JAK3 came to 63%. The remaining activity at 0.1 µM at GSPT1 turned out to be 94%.

Consider `CCS(=O)(=O)N1CC(CC#N)(n2cc(-c3nc(Nc4ccc(C(=O)N5CCC(CN6CCN(c7ccc(C8CCC(=O)NC8=O)cc7)CC6)CC5)cc4)nc4[nH]ccc34)cn2)C1` (stereo not drawn) [Compound 49, 2-(3-(4-(2-((4-(4-((4-(4-(2,6-dioxopiperidin-3-yl)phenyl)piperazin-1-yl)methyl)piperidine-1-carbonyl)phenyl)amino)-7H-pyrrolo[2,3-d]pyrimidin-4-yl)-1H-pyrazol-1-yl)-1-(ethylsulfonyl)azetidin-3-yl)acetonitrile], for which, in the assay on MHH-CALL-4 cells, the EC50 was found to be 4 nM and the AUC is recorded as 199. Besides, the “Target Protein Degradation (% remaining at 100 nM, 24 h) JAK1” value on JAK1 was 59 % remaining. For the same molecule, the “Target Protein Degradation (% remaining at 100 nM, 24 h) JAK2” value in the assay with JAK2 came out at 13 % remaining. The remaining activity at 0.1 µM on JAK3 was determined as 11%. Further, at GSPT1, the remaining activity at 0.1 µM amounted to 74%.

Turning to `CCCn1cc(-c2nc(Nc3ccc(C(=O)NCCCCOc4ccc(C5CCC(=O)NC5=O)cc4)cc3)nc3[nH]ccc23)cn1` (stereo not drawn) [Compound 43, N-(4-(4-(2,6-dioxopiperidin-3-yl)phenoxy)butyl)-4-((4-(1-propyl-1H-pyrazol-4-yl)-7H-pyrrolo[2,3-d]pyrimidin-2-yl)amino)benzamide], at JAK1, the “Target Protein Degradation (% remaining at 100 nM, 24 h) JAK1” value came out at 123 % remaining. In addition, the “Target Protein Degradation (% remaining at 100 nM, 24 h) JAK2” value in the assay on JAK2 is 76 % remaining. The remaining activity at 0.1 µM on JAK3 worked out at 79%; at GSPT1 it was 37%.

For `CCS(=O)(=O)N1CC(CC#N)(n2cc(-c3nc(Nc4ccc(C(=O)NCC5CCN(c6ccc(C7CCC(=O)NC7=O)cc6)CC5)cc4)nc4[nH]ccc34)cn2)C1` (stereo not drawn) [Compound 45, 4-((4-(1-(3-(cyanomethyl)-1-(ethylsulfonyl)azetidin-3-yl)-1H-pyrazol-4-yl)-7H-pyrrolo[2,3-d]pyrimidin-2-yl)amino)-N-((1-(4-(2,6-dioxopiperidin-3-yl)phenyl)piperidin-4-yl)methyl)benzamide], at JAK1, the “Target Protein Degradation (% remaining at 100 nM, 24 h) JAK1” value was found to be 107 % remaining. For the same molecule, in the assay on JAK2, the “Target Protein Degradation (% remaining at 100 nM, 24 h) JAK2” value is given as 21 % remaining. Besides, the results for the remaining activity at 0.1 µM at JAK3 and on GSPT1 were 29% and 101%, respectively.

Regarding `CCS(=O)(=O)N1CC(CC#N)(n2cc(-c3nc(Nc4ccc(C(=O)NCCN5CCC(c6ccc7c(c6)CN(C6CCC(=O)NC6=O)C7=O)CC5)cc4)nc4[nH]ccc34)cn2)C1` (stereo not drawn) [Compound 35, 4-((4-(1-(3-(cyanomethyl)-1-(ethylsulfonyl)azetidin-3-yl)-1H-pyrazol-4-yl)-7H-pyrrolo[2,3-d]pyrimidin-2-yl)amino)-N-(2-(4-(2-(2,6-dioxopiperidin-3-yl)-1-oxoisoindolin-5-yl)piperidin-1-yl)ethyl)benzamide], the EC50 with MHH-CALL-4 cells amounted to 22 nM. Also, the AUC in the assay with MHH-CALL-4 cells came to 223. The “Target Protein Degradation (% remaining at 100 nM, 24 h) JAK2” value in the assay with JAK2 came out at 33 % remaining. Besides, the remaining activity at 0.1 µM came to 51% at JAK3 and 116% at GSPT1.

Regarding `N#CC[C@H](C1CCCC1)n1cc(-c2nc(Nc3ccc(C(=O)NCCCN4CCN(c5ccc(C6CCC(=O)NC6=O)cc5)CC4)cc3)nc3[nH]ccc23)cn1` (stereo partly drawn) [Compound 38, 4-((4-(1-((R)-2-cyano-1-cyclopentylethyl)-1H-pyrazol-4-yl)-7H-pyrrolo[2,3-d]pyrimidin-2-yl)amino)-N-(3-(4-(4-(2,6-dioxopiperidin-3-yl)phenyl)piperazin-1-yl)propyl)benzamide], in the assay on MHH-CALL-4 cells, the EC50 amounted to 2.6 nM. Also, in the assay on MHH-CALL-4 cells, the AUC is 122. Also, the “Target Protein Degradation (% remaining at 100 nM, 24 h) JAK2” value in the assay on JAK2 is on record as 48 % remaining. Besides, the values for the remaining activity at 0.1 µM on JAK3 and at GSPT1 were 41% and 99%, respectively.

As a reminder, the EC50 is the concentration giving half of the maximal effect.
